The values that follow come from ChEMBL document CHEMBL5465560, “Selectivity Literature for EUbOPEN Chemogenomic Library” (2024).

The target of assay [1] is T1, Mitogen-activated protein kinase 15 (Homo sapiens) (UniProt Q8TD08).
T1 sequence (whole entry): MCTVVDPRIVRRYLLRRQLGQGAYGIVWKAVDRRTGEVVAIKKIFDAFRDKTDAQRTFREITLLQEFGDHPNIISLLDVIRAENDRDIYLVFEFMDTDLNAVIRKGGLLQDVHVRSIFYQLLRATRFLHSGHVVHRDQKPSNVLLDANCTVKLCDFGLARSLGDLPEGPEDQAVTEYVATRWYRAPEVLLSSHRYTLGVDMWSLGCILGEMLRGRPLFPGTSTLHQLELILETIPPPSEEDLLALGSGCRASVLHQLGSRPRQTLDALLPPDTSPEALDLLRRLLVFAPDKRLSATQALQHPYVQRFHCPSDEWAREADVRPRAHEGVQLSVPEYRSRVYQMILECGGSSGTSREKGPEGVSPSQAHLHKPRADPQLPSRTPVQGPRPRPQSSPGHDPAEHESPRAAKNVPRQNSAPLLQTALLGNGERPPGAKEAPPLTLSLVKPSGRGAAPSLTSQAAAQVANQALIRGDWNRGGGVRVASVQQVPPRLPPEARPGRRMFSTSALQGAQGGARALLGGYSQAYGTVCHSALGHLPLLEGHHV
The assay can be described thus: Selectivity interaction (Rxn Biology Kinase assay) EUB0001632a MAPK15. As to conditions: at 10 µM.

In assay [2] the target is MAP kinase-activated protein kinase 3 (Homo sapiens) (UniProt Q16644). Kind of assay: Selectivity interaction (Kinase panel (KiNativ target engagement assay in Jurkat cells)) EUB0001635a MAPKAPK3. As to conditions: Selectivity number of off-targets 0.0, Selectivity number of targets 233.0, Source Knowledge https://www.sciencedirect.com/science/article/pii/S2451945619300674?via%3Dihub, at 1 µM. It counts as cell-based.

Assay [3] has as its target Serine/threonine-protein kinase 32C (Homo sapiens) (UniProt Q86UX6). As to conditions: at 10 µM.
Assay [4] has as its target DNA (cytosine-5)-methyltransferase 1 (Homo sapiens) (UniProt P26358). To be noted: at 1 µM.
For assay [5], the target named is Ribosomal protein S6 kinase alpha-5 (Homo sapiens) (UniProt O75582). The assay can be described thus: Selectivity interaction (KinomeScan (DiscoverX)) EUB0000655a RPS6KA5. To be noted: at 10 µM.
Assay [6] deals with Mitogen-activated protein kinase 11 (Homo sapiens) (UniProt Q15759). Kind of assay: Selectivity interaction (KinomeScan (DiscoverX)) EUB0001079a MAPK11. To be noted: at 1 µM.
Assay [7] addresses T2, Ribosomal protein S6 kinase alpha-3 (Homo sapiens, UniProt P51812). Kind of assay: (§1) Selectivity interaction (ActivX KiNativ screen (kinase selectivity in THP-1 cell lysates)) EUB0000639a RPS6KA3. It counts as subcellular. As to conditions: lysate, at 0.2 µM.
For assay [8], the target named is Phosphatidylinositol 3-kinase catalytic subunit type 3 (Homo sapiens, UniProt Q8NEB9). The assay can be described thus: Selectivity interaction (ActivX KiNativ screen (kinase selectivity in THP-1 cell lysates)) EUB0000639a PIK3C3. Type of assay: subcellular. To be noted: lysate, at 0.01 µM.
For assay [9], the target named is T2, Ribosomal protein S6 kinase alpha-3. Described as §1. Type of assay: subcellular. As to conditions: lysate, at 5 µM.
Assay [10] addresses Serine/threonine-protein kinase PRP4 homolog (Homo sapiens) (UniProt Q13523). Kind of assay: Selectivity interaction (ActivX KiNativ screen (kinase selectivity in THP-1 cell lysates)) EUB0000639a PRPF4. It counts as subcellular. As to conditions: lysate, at 1 µM.
For assay [11], the target named is Angiopoietin-1 receptor (Homo sapiens) (UniProt Q02763). The assay can be described thus: Selectivity interaction (KinomeScan (DiscoverX)) EUB0001049a TEK. As to conditions: at 1 µM.
Assay [12] concerns the target Homeodomain-interacting protein kinase 1 (Homo sapiens, UniProt Q86Z02). The assay can be described thus: Selectivity interaction (Enzymatic assay (Eurofins)) EUB0001049a HIPK1.
Assay [13] addresses Phosphatidylinositol 4-phosphate 5-kinase type-1 alpha (Homo sapiens) (UniProt Q99755). The assay can be described thus: Selectivity interaction (KinomeScan (DiscoverX)) EUB0000092b PIP5K1A. As to conditions: at 10 µM.
For assay [14], the target named is Fibroblast growth factor receptor 1 (Homo sapiens, UniProt P11362). The assay can be described thus: Selectivity interaction (Kinase panel (DSF assay)) EUB0001559a FGFR1.
Assay [15] deals with Protein kinase C theta type (Homo sapiens, UniProt Q04759). The assay can be described thus: Selectivity interaction (KinomeScan (DiscoverX)) EUB0000045b PRKCQ.
For assay [16], the target named is Glycogen synthase kinase-3 beta (Homo sapiens, UniProt P49841). The assay can be described thus: Selectivity interaction (KinomeScan (DiscoverX)) EUB0000045b GSK3B.
Assay [17] deals with Glycogen synthase kinase-3 alpha (Homo sapiens, UniProt P49840). Kind of assay: Selectivity interaction (Upstate Kinase Profiler service (Millipore)) EUB0000056c GSK3A. To be noted: at 1 µM.
For assay [18], the target named is Insulin receptor-related protein (Homo sapiens) (UniProt P14616). Kind of assay: Selectivity interaction (KinomeScan (DiscoverX)) EUB0000595a INSRR. As to conditions: at 10 µM.
The target of assay [19] is Cyclin-dependent kinase 11B (Homo sapiens) (UniProt P21127). The assay can be described thus: Selectivity interaction (KinomeScan (DiscoverX)) EUB0000595a CDK11B. As to conditions: at 10 µM.

T2 sequence (P51812 whole entry): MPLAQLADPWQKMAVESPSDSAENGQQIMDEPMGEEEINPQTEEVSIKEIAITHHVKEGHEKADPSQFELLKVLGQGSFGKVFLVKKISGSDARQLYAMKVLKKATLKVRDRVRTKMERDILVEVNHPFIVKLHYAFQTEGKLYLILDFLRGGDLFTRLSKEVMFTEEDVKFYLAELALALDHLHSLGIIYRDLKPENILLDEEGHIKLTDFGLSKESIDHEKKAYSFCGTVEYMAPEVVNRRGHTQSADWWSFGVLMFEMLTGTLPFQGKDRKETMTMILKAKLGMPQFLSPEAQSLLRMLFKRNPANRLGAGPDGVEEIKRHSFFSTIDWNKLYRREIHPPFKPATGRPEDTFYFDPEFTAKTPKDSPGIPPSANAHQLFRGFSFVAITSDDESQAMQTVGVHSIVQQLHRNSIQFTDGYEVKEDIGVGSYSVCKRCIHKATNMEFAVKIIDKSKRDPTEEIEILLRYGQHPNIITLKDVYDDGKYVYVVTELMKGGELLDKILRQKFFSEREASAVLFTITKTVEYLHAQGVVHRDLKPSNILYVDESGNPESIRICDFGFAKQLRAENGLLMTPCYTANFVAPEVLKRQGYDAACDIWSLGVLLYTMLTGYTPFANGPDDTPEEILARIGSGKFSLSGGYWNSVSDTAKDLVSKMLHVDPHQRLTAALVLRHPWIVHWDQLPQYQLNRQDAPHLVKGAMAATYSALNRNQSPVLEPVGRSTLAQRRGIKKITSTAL
Glycogen synthase kinase-3 beta, sequence (P49841 whole entry, looked up): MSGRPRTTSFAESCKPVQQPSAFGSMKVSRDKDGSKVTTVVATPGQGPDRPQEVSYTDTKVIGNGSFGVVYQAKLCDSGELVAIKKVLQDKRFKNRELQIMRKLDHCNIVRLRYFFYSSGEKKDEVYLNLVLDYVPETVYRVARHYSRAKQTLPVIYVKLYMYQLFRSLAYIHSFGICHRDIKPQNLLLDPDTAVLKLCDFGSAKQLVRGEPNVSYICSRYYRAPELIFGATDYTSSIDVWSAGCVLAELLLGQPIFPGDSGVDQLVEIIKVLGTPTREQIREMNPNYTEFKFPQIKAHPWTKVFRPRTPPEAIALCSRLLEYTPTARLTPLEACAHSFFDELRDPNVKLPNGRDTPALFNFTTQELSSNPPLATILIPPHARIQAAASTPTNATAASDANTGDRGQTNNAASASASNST
Protein kinase C theta type, sequence (Q04759 whole entry, looked up): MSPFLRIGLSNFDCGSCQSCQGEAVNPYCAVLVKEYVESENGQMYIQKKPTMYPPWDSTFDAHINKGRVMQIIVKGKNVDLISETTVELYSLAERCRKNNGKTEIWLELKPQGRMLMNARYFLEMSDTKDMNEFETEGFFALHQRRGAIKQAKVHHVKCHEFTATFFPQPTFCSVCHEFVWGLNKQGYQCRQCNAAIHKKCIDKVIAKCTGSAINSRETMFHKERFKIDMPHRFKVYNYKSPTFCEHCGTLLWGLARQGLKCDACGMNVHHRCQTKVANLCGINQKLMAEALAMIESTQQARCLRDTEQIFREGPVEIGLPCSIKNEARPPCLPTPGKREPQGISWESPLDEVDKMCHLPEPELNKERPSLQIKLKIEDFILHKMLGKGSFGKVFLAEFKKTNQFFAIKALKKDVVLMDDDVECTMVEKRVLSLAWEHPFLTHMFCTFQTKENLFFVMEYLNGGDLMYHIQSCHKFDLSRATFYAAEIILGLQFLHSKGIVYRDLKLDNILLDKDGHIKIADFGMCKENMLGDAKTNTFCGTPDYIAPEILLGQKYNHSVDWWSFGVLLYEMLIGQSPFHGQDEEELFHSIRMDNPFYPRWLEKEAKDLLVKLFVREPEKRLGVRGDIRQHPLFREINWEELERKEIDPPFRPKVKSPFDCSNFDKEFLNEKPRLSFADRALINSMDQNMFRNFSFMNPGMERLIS
Homeodomain-interacting protein kinase 1, sequence (Q86Z02 whole entry): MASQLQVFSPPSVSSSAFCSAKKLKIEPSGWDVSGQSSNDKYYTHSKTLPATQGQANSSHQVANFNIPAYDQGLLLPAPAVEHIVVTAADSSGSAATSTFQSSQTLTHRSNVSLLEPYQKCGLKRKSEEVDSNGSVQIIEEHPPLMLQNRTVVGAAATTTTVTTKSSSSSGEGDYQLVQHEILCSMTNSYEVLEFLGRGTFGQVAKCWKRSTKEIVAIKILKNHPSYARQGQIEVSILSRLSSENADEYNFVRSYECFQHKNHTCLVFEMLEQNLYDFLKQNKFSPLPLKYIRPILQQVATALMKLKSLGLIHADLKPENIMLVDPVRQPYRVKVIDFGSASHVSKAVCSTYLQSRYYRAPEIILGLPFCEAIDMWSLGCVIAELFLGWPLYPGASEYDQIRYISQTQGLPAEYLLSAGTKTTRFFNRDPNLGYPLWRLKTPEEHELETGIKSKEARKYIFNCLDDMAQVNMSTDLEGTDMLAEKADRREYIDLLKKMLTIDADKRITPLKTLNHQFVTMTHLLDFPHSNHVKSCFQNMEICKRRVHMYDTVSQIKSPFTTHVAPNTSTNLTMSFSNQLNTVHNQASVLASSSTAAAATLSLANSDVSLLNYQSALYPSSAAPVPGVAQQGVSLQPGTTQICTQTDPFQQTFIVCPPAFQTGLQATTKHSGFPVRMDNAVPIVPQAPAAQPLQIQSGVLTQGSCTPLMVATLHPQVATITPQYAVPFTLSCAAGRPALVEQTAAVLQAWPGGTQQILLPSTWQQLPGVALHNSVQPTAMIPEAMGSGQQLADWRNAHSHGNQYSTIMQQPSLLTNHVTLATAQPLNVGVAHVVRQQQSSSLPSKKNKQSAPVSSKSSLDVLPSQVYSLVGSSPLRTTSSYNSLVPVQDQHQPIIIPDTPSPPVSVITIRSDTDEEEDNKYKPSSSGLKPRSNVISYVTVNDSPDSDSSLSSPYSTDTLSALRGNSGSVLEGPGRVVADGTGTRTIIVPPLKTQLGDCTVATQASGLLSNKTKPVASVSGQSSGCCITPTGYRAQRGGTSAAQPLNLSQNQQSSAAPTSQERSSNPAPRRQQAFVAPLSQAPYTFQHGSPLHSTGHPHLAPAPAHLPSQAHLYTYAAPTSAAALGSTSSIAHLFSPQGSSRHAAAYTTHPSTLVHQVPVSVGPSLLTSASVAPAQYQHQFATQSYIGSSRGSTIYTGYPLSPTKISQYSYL
Fibroblast growth factor receptor 1, sequence (P11362 22-822 limits assumed): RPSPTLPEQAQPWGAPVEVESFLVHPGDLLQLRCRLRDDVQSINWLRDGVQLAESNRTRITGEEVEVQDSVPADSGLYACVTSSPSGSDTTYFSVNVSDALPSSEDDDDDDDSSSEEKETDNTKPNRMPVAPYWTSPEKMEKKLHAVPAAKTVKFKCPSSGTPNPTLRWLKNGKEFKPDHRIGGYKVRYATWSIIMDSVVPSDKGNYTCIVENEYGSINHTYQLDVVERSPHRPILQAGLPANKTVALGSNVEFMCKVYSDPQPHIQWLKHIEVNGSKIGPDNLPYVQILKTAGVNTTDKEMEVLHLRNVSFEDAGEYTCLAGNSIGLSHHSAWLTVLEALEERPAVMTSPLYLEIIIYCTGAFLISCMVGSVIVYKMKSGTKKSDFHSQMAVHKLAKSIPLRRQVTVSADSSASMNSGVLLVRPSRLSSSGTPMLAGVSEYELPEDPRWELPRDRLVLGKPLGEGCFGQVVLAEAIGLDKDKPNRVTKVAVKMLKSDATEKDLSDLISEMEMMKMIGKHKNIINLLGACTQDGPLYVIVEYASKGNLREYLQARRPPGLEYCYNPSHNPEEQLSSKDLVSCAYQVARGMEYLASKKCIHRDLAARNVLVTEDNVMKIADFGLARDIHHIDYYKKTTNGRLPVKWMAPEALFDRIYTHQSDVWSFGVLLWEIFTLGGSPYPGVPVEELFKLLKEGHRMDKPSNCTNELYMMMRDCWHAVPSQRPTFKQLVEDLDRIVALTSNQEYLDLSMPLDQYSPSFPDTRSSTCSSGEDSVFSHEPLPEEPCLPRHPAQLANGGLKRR
Phosphatidylinositol 4-phosphate 5-kinase type-1 alpha (Homo sapiens), sequence (Q99755 whole entry): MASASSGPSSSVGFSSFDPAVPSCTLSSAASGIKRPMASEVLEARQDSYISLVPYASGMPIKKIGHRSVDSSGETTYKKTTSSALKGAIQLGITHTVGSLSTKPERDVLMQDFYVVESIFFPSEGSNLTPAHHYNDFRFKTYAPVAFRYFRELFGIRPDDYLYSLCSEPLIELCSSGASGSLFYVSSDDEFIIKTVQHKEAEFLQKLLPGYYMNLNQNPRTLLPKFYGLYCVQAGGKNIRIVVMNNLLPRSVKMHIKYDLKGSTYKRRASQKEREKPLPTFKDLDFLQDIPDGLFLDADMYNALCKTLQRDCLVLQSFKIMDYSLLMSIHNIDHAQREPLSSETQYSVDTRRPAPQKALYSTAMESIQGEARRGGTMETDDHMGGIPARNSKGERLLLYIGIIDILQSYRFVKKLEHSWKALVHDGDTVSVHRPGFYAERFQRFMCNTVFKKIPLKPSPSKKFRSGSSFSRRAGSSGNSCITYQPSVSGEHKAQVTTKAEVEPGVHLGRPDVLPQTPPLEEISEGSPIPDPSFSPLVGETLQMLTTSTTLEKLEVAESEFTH
Glycogen synthase kinase-3 alpha, sequence (P49840 2-483 limits assumed): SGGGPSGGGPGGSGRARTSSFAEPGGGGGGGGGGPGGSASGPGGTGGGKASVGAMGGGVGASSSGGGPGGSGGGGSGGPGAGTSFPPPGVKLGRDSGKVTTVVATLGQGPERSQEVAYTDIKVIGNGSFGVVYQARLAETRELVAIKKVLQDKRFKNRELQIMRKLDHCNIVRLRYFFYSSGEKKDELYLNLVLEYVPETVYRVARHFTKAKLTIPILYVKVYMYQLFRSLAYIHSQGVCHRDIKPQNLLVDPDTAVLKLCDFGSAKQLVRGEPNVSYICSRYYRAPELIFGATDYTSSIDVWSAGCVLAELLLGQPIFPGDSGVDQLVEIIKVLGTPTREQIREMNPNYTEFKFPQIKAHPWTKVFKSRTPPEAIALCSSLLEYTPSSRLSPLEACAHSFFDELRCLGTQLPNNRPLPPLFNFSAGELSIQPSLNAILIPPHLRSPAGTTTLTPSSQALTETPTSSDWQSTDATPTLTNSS

In the case of `Cn1cc(-n2cnc3c(NCc4nc5cc(Cl)c(Cl)cc5[nH]4)nc(N4CCOCC4)nc32)cn1`, the % of inhibition in assay [1] is -25.6%.
On to `C=CC(=O)Nc1ccc(C(=O)Nc2[nH]nc3c2CN(C(=O)N[C@H](CN(C)C)c2ccccc2)C3(C)C)cc1`, for which, in [2], the % of engagement is -9.9%.
As for `Cc1cc([C@@H](C)Nc2ccccc2C(=O)O)c2nc(N3CCOCC3)cc(=O)n2c1` [AZD-6482], the % of control in [3] was determined as 82%.
Take `CNCCN1CCC(c2cc(CN(C)C(=O)c3cccc(Oc4ccccc4)c3)ccn2)CC1`: in [4], the % activity is more than 85%.
For `CN(C)CCOc1ccc(-c2nc(-c3ccncc3)c(-c3ccc4c(c3)CC/C4=N\O)[nH]2)cc1`, the % of control in assay [5] was found to be 100%.
On to `Nc1cnc(N2CCc3cc(S(=O)(=O)Nc4c(F)cc(Cl)cc4F)cc(N4CCCC4=O)c32)nc1` [TP-020n], for which the % of control in assay [6] amounted to 100%.
Consider `CC[C@@H]1[C@H](F)C(=O)N[C@@H]1COc1nccc2cc(C(N)=O)c(OC)cc12` [ZIMLOVISERTIB], for which the % of inhibition was -3.7% in [7], -21% in assay [8], 1.6% in assay [9] and 64.7% in assay [10].
In turn, `COc1cc(Nc2nc(C)cc(-c3cnn4nc(OC)ccc34)n2)cc(C(F)(F)F)c1` gave a % of control in assay [11] of 100%. For the same molecule, the IC50 in [12] is more than 10 µM.
For the molecule `CCC(=O)N1CCN(c2ccc(-n3c(=O)ccc4cnc5ccc(-c6cnc7ccccc7c6)cc5c43)cc2C(F)(F)F)CC1`, in assay [13], the % of control was 89%.
In assay [14], `CN(C(=O)c1cnn2cccnc12)c1cc2c(cc1N1CCOCC1)C(=O)N(C[C@@H](F)C(C)(C)O)C2` gave a dTM of 1 K.
As to `C=CC(=O)Nc1cc(-n2c(=O)ccc3cnc4ccc(-c5ccc(NS(C)(=O)=O)cc5)cc4c32)ccc1C`, the % of control in assay [15] (at 1 µM) turned out to be 100%; in assay [15] (at 10 µM) it was 76%; in [16] (at 1 µM), 100%; in assay [16] (at 10 µM), 77%.
For `Cc1ccc(-c2ccc3c(ccc4sc5c(c43)NC[C@@H](C)NC5=O)n2)cn1`, the % of inhibition in assay [17] stood at 2%.
Regarding `COCC(=O)NC/C=C/c1ccc2ncnc(Nc3ccc(Oc4ccc(C)nc4)c(C)c3)c2c1` [CP-724714], the % of control in assay [18] and in assay [19] was 100% in each case.

A word on the IC50: it is the concentration needed to halve the response being measured. A high value points to weaker potency in that assay.
